# Like-named read-outs stand apart in the source and are kept apart here.
# Assays:
# [1] = test system: S. aureus; experiment: Agar plate kill test with Ivory soap, S. aureus; assay type: cell-based; settings: 2 days, 37°C
# Experimental: (§1) Phenyl-2-thienyliodonium chloride, 2,2'-bisthienyliodonium chloride, and, for comparative purposes, diphenyliodonium chloride are individually dispersed in Ivory soap to provide concentrates containing 1 part by weight of iodonium salt to 50 parts by weight of soap. The soap concentrates are serially dispersed and serially diluted with liquid nutrient agar at 42°C. to prepare culture media containing various concentrations of one of the iodonium salts. The culture media are uniformly inoculated with S. aureus and plated in petri dishes. The inoculation is carried out from broth cultures of the named organism containing about 5×10^8 organisms per milliliter in the proportion of one-tenth milliliter of bacterial culture per 20 milliliters of cultur medium containing each test compound. In a check operation, nutrient agar containing the same amount of Ivory soap is similarly inoculated with the same organism. After two days' incubation at 37°C., the plates are examined for microbial growth.
# [2] = test system: A. aerogenes; experiment: Agar plate kill test with Ivory soap, A. aerogenes; assay type: cell-based; settings: Klebsiella aerogenes, 48 h, Ivory soap, read-out: Percent Kill of A. aerogenes
# Experimental: as §1
# The procedure described above is repeated with varying concentrations of 4-chlorophenyl-2-thienyliodonium chloride, 3,4-dichlorophenyl-2-thienyliodonium chloride, and for comparative purposes bis(4-chlorophenyl)iodonium chloride, phenyl-4-chlorophenyliodonium chloride and bis(2,4-dichlorophenyl)iodoniumchloride in a series of tests wherein the culture media are inoculated individually with the organism A. aerogenes.
# The procedure described above is once again repeated with each of 2,2'-bisthienyliodonium chloride, phenyl-2-thienyliodonium chloride, 4-bromophenyl-2-thienyliodonium chloride, bis(4-bromophenyl)iodonium chloride and bis(4-bromophenyl)iodonium bromide in a series of tests wherein the culture media are inoculated individually with the organism A. aerogenes.
# [3] = test system: S. typhosa; experiment: Agar plate kill test with Ivory soap, S. typhosa; assay type: cell-based; settings: 48 h, read-out: Percent Kill of S. Typhosa
# Experimental: as §1
# The procedure described above is again repeated in a series of tests wherein the culture media are inoculated individually with the organism S. typhosa and wherein the culture media contain varying concentrations of one of the iodonium salts, as set forth in following Table II.
# [4] = test system: S. aureus; experiment: Agar dilution MIC in absence of soap, S. aureus; assay type: cell-based; settings: Staphylococcus aureus; read-out: Minimum growth inhibitory concentration, S. aureus
# Experimental: (§2) The growth-inhibitory activity of the below-indicated compounds against some microorganisms most relevant to the human skin was determined by standard agar dilution techniques to provide the data given in following Table 1.
# (§3) In Table 1, the first column gives the chemical structures of the test compounds, while the additional columns give the names of the test organisms and the minimum inhibitory concentration in parts per million (p.p.m.) of the compounds listed for 100% growth inhibition against the particular microorganisms indicated. […] For each p.p.m. of test compound, 50 p.p.m. of Ivory soap was also present in the culture medium for part A of Table 1, while in part B of Table 1, the culture medium was free of any additive other than the test compound. The data for compounds 13 through 16 of part B of Table 1 were taken from Cannon U.S. Pat. No. 3,207,660 while those for compounds 17 and 18 were taken from trade literature.
# [5] = test system: P. aeruginosa; experiment: Agar dilution MIC in absence of soap, P. aeruginosa; assay type: cell-based; settings: Pseudomonas aeruginosa; read-out: Minimum growth inhibitory concentration, P. aeruginosa
# Experimental: as §2, §3
# [6] = test system: S. typhosa; experiment: Agar dilution MIC in absence of soap, S. typhosa; assay type: cell-based; settings: read-out: Minimum growth inhibitory concentration, S. typhosa
# Experimental: as §2, §3
# [7] = test system: S. aureus; settings: absence of soap; 13-16 from Cannon U.S. Pat. No. 3,207,660, 17-18 from trade literature; cited from earlier work
# [8] = test system: P. aeruginosa; settings: absence of soap, 13-16 from Cannon U.S. Pat. No. 3,207,660, 17-18 from trade literature, cited from earlier work
# [9] = test system: S. typhosa; settings: absence of soap; 17-18 from trade literature; cited from earlier work
# [10] = test system: mice; settings: cited from earlier work; for Oral LD50 (mice): 12-15 from U.S. Pat. No. 3,207,660, 17, 18 from trade literature
# [11] = test system: S. aureus; experiment: Nutrient agar growth test, S. aureus (Example 3); assay type: cell-based; settings: 0.001 percent by weight, 2 days, 35°C
# Description: (§4) The 4-chlorophenyl-2-thienyliodonium chloride, trifluoroacetate and trichloroacetate salts are dispersed in melted nutrient agar to produce culture media containing 0.001 percent by weight of one of the salt compounds. Such melted media are then poured into petri dishes and the solidified surface in each dish inoculated with a 24-hour broth culture, one of the organisms S. aureus and S. typhosa. In a check operation, petri dishes containing unmodified nutrient agar are each individually inoculated in the same manner with the named organisms. After two days' incubation at 35°C. the agar surface in each dish is examined for microbial growth. […] At the time of these observations the check dishes are found to support a heavy growth of the two named organisms.
# [12] = test system: S. typhosa; experiment: Nutrient agar growth test, S. typhosa (Example 3); assay type: cell-based; settings: 0.001 percent by weight, 2 days, 35°C
# Description: as §4
compound,measurement,setting,value
"c1csc([I+]c2cccs2)c1 [2,2'-bisthienyliodonium chloride]",killing at 5 ppm,"[1]; Staphylococcus aureus, 48 h, 5 p.p.m., read-out: percent kill of S. aureus",100%
same,killing at 5 ppm,[2]; 5 p.p.m.,100%
same,killing at 5 ppm,[3],100%
FC(F)(F)c1cccc([I+]c2cccs2)c1 [Compound 12 (Table 1)],MIC,[4],< 1 µg/mL
same,MIC,[5],50 µg/mL
same,MIC,[6],10 µg/mL
Clc1ccc2c(c1)[I+]c1cc(Cl)ccc1-2 [Compound 16 (Table 1)],"Minimum growth inhibitory concentration, S. aureus",[7],1.56 ppm
same,"Minimum growth inhibitory concentration, P. aeruginosa",[8],6.25 ppm
c1ccc2c(c1)[I+]c1ccccc1-2 [Compound 14 (Table 1)],"Minimum growth inhibitory concentration, S. aureus",[7],5 ppm
same,"Minimum growth inhibitory concentration, P. aeruginosa",[8],5 ppm
Clc1cccc2c1-c1ccccc1[I+]2 [Compound 15 (Table 1)],"Minimum growth inhibitory concentration, S. aureus",[7],1.56 ppm
same,"Minimum growth inhibitory concentration, P. aeruginosa",[8],3.13 ppm
Oc1cc(Cl)ccc1Oc1ccc(Cl)cc1Cl [Irgasan],"Minimum growth inhibitory concentration, S. aureus",[7],1 ppm
same,"Minimum growth inhibitory concentration, P. aeruginosa",[8],more than 300 ppm
same,"Minimum growth inhibitory concentration, P. aeruginosa",[8]; listed as Compound 18 (Table 1),> 300 ppm
same,"Minimum growth inhibitory concentration, S. typhosa",[9],1 ppm
same,Oral LD50 (mice),[10],"4,000 mg/kg"
same,Oral LD50 (mice),[10]; listed as Compound 17 (Table 2),4000 mg/kg
"[Cl-].c1ccc([I+]c2ccccc2)cc1 [diphenyliodonium chloride, reference compound]",growth of S. aureus,[1]; 500 p.p.m.,heavy uniform growth
same,killing at 500 ppm,"[3]; 500 p.p.m., Ivory soap",0%
"c1ccc([I+]c2cccs2)cc1 [phenyl-2-thienyliodonium chloride, Phenyl-2-thienyliodonium chloride]",killing at […],"[1]; Staphylococcus aureus, 48 h, 2.5 p.p.m., read-out: percent kill of S. aureus",100%
same,killing at […],[2]; 2.5 p.p.m.,100%
same,killing at […],[3],100%
c1ccc2c(c1)[I+]c1ccccc1-2 [Compound 12 (Table 2)],Oral LD50 (mice),[10],12.5 mg/kg
Clc1ccc([I+]c2cccs2)cc1.O=C([O-])C(F)(F)F [4-Chlorophenyl-2-thienyliodonium trifluoroacetate],microbial growth on agar surface,[11],free of microbial growth
same,microbial growth on agar surface,[12],free of microbial growth
c1ccc2c(c1)[I+]c1ccccc1-2 [Compound 13 (Table 1)],"Minimum growth inhibitory concentration, S. aureus",[7],3.13 ppm
same,"Minimum growth inhibitory concentration, P. aeruginosa",[8],3.13 ppm
Clc1ccc([I+]c2cccs2)cc1 [4-chlorophenyl-2-thienyliodonium trichloroacetate],microbial growth on agar surface,[11],free of microbial growth
same,microbial growth on agar surface,[12],free of microbial growth
Clc1ccc2c(c1)[I+]c1cc(Cl)ccc1-2 [Compound 15 (Table 2)],Oral LD50 (mice),[10],21.32 ± 3.2 mg/kg
C[CH2][Hg][S]c1ccccc1C(=O)[O-].[Na+] [Merthiolate],"LD50 (mice), subcutaneous","[10]; S.C., trade literature",66 mg/kg
Clc1cccc2c1-c1c(Cl)cccc1[I+]2 [Compound 14 (Table 2)],Oral LD50 (mice),[10],8 to 10 mg/kg
COc1ccc([I+]c2cccc(C(F)(F)F)c2)cc1 [Compound 11 (Table 1)],MIC,[4],10 µg/mL
same,MIC,[5],500 µg/mL
same,MIC,[6],100 µg/mL

# — patent US3944498A, “Germicidal detergent containing a thienyliodonium salt” (The Dow Chemical Company, priority 1973, dated 1976)
